Test results reported in US9227971B2, “Pyrazolo[1,5-a]pyrimidine compounds as mTOR inhibitors” (Merck Sharp & Dohme Corp., priority 2010, dated 2016).
Read-outs that look alike come from different tables or passages of the source.

What was measured:
[1] = tested on: phosphorylated AKT Ser473 (pAKT S473), mTORC2 activity, PC3 cells; experiment: mTOR target engagement assay, immunofluorescent cell-based, pAKT S473 readout (mTORC2 activity)
Summary of the method: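 After blocking, cells were stained overnight at 4 °C with anti-pAKT S473 antibody, then a fluorescent secondary; inhibition was read as reduced fluorescence intensity.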

[2] = tested on: phosphorylated 4E-BP1 Thr37/46 (p4E-BP1 Thr37/46), mTORC1 activity, PC3 cells; experiment: mTOR target engagement assay, immunofluorescent cell-based, p4E-BP1 Thr37/46 readout (mTORC1 activity); conditions: read-out: p4E-BP1 Thr37/46 IC50
Summary of the method: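 PTEN-mutant PC3 prostate cells were treated with serially diluted compound in 5% FBS F12 medium (0.25% DMSO) for ninety minutes at 37° C, glyoxal-fixed, then immunostained overnight at 4° C for p4E-BP1 Thr37/46 with an Alexa Fluor 488 secondary. IC50 came from four-parameter fits of fluorescence, DMSO-only wells defining 100%.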

[3] = Homo sapiens, PC-3, PC3 cells, compound treatment ninety minutes at 37° C.
[4] = Homo sapiens, PC-3, Table 3-1, PC3 cells

CC(=O)c1c([C@@H]2C[C@H]3CC[C@@H](C2)N3C(=O)CO)nc2c(-c3ccc(-c4ccc(F)cc4)nc3)cnn2c1N [Compound 1.1.159, 1-((1R,3s,5S)-3-(6-acetyl-7-amino-3-(6-(4-fluorophenyl)pyridin-3-yl)pyrazolo[1,5-a]pyrimidin-5-yl)-8-azabicyclo[3.2.1]octan-8-yl)-2-hydroxyethanone]
IC50 [1, 3]: 100 to 1000 nM | IC50 [2, 3]: 100 to 1000 nM

CC(=O)c1c([C@@H]2C[C@H]3CC[C@@H](C2)N3C(=O)c2nnc[nH]2)nc2c(-c3ccc(-c4cccnc4F)nc3)cnn2c1N [Compound 1.1.62, 1-(5-((1R,3s,5S)-8-(4H-1,2,4-triazole-3-carbonyl)-8-azabicyclo[3.2.1]octan-3-yl)-7-amino-3-(2′-fluoro-2,3′-bipyridin-5-yl)pyrazolo[1,5-a]pyrimidin-6-yl)ethanone]
IC50 [1, 3]: 1 to 100 nM | IC50 [2, 3]: 1 to 100 nM

CC(=O)c1c([C@@H]2C[C@H]3CC[C@@H](C2)N3C(=O)C(N)=O)nc2c(-c3ccc(-c4ccccc4)nc3)cnn2c1N [Compound 1.1.118, 2-((1R,3s,5S)-3-(6-acetyl-7-amino-3-(6-phenylpyridin-3-yl)pyrazolo[1,5-a]pyrimidin-5-yl)-8-azabicyclo[3.2.1]octan-8-yl)-2-oxoacetamide]
IC50 [1, 3]: 100 to 1000 nM | IC50 [2, 3]: 100 to 1000 nM

((1R,3s,5S)-3-(7-amino-6-(methylsulfonyl)-3-(6-(5-methylthiazol-2-yl)pyridin-3-yl)pyrazolo[1,5-a]pyrimidin-5-yl)-8-azabicyclo[3.2.1]octan-8-yl)(5-methyl-4H-1,2,4-triazol-3-yl)methanone [Compound 3.183]
IC50 ([1]; Table 3-1, PC3 cells): 100 to 1000 nM | IC50 ([2]; Table 3-1, PC3 cells): 100 to 1000 nM

CS(=O)(=O)c1c([C@@H]2C[C@H]3CC[C@@H](C2)N3C=O)nc2c(-c3ccc(-c4ccccc4)nc3)cnn2c1N [Compound 3.19, (1R,3s,5S)-3-(7-amino-6-(methylsulfonyl)-3-(6-phenylpyridin-3-yl)pyrazolo[1,5-a]pyrimidin-5-yl)-8-azabicyclo[3.2.1]octane-8-carbaldehyde]
IC50 [1, 4]: 100 to 1000 nM | IC50 [2, 4]: 100 to 1000 nM

COc1ccc(-c2ccc(-c3cnn4c(N)c(S(C)(=O)=O)c([C@@H]5C[C@H]6CC[C@@H](C5)N6C(=O)c5nnc[nH]5)nc34)cn2)cc1 [Compound 3.33, ((1R,3s,5S)-3-(7-amino-3-(6-(4-methoxyphenyl)pyridin-3-yl)-6-(methylsulfonyl)pyrazolo[1,5-a]pyrimidin-5-yl)-8-azabicyclo[3.2.1]octan-8-yl)(4H-1,2,4-triazol-3-yl)methanone]
IC50 [1, 4]: 1 to 100 nM | IC50 [2, 4]: 1 to 100 nM

CS(=O)(=O)c1c([C@@H]2C[C@H]3CC[C@@H](C2)N3C(=O)NC2CC2)nc2c(-c3ccc(-c4ccccc4)nc3)cnn2c1N [Compound 3.11, (1R,3s,5S)-3-(7-amino-6-(methylsulfonyl)-3-(6-phenylpyridin-3-yl)pyrazolo[1,5-a]pyrimidin-5-yl)-N-cyclopropyl-8-azabicyclo[3.2.1]octane-8-carboxamide]
IC50 [1, 4]: 100 to 1000 nM | IC50 [2, 4]: 1000 to 10000 nM

CS(=O)(=O)c1c([C@@H]2C[C@H]3CC[C@@H](C2)N3)nc2c(-c3ccc(-c4ccccc4)nc3)cnn2c1N [Compound 3.202, 5-((1R,3s,5S)-8-azabicyclo[3.2.1]octan-3-yl)-6-(methylsulfonyl)-3-(6-phenylpyridin-3-yl)pyrazolo[1,5-a]pyrimidin-7-amine]
IC50 [1, 4]: 1000 to 10000 nM | IC50 [2, 4]: 1000 to 10000 nM

CS(=O)(=O)c1c([C@@H]2C[C@H]3CC[C@@H](C2)N3C(=O)c2nnc[nH]2)nc2c(-c3ccc(-c4ccc5c(c4)OC(F)(F)O5)nc3)cnn2c1N [Compound 3.53, ((1R,3s,5S)-3-(7-amino-3-(6-(2,2-difluorobenzo[d][1,3]dioxol-5-yl)pyridin-3-yl)-6-(methylsulfonyl)pyrazolo[1,5-a]pyrimidin-5-yl)-8-azabicyclo[3.2.1]octan-8-yl)(4H-1,2,4-triazol-3-yl)methanone]
IC50 [1, 4]: 100 to 1000 nM | IC50 [2, 4]: 1000 to 10000 nM
